Where two headings read alike, the source gives them in different places. Where no end group is shown, it is not given here.
What was measured:
[1] = test system: Pseudomonas aeruginosa and MRPA strains; assay: microbe, parasite or virus in culture; type: cell-based; settings: broth micro-dilution, 37 °C, 18–24 h
From the text: Gram-negative (Pseudomonas aeruginosa ATCC 27853) bacterial strains were obtained from the ATCC (American Type Culture Collection; Manassas, VA, USA). Multidrug-resistant strains (Pseudomonas aeruginosa 138, 431, 434, 557, 559, 778, 1034, 1162, 3290, 3399, 3592, 3904, 4007, 4319, 4891, 5018, and 671973) were obtained from the Chonnam National University Hospital (Gwangju, South Korea).
(§1) We examined the activity of each peptide against both pseudomonas aeruginosa and multidrug-resistant strains. The minimal inhibitory concentrations (MICs) of peptides were determined using the broth micro-dilution assay as described previously. Briefly, bacterial strains were cultivated with shaking overnight at 37 °C. The next day, they were diluted to a density of 2 × 10^5 CFU/mL with growth medium. Peptides were serially diluted with 10 mM sodium phosphate buffer. 50 µL bacterial aliquots were mixed with an equal volume of peptide solution, and incubated at 37 °C for 18–24 h. Inhibition of bacterial growth was determined by measuring the absorbance at 600 nm using a Versa Max microplate reader (Molecular Devices, Sunnyvale, CA, USA). The test was performed in triplicate.

[2] = test system: P. aeruginosa strains (biofilm formation); type: cell-based, Pseudomonas aeruginosa; settings: 24 h, 37 °C, crystal violet OD595
Procedure: To evaluate the ability of bacterial strains to form biofilms either in the absence or presence of peptides, antibiotic-susceptible P. aeruginosa (ATCC 27853), and various strains of MDR P. aeruginosa were cultured in nutrient broth (NB). […]. The biofilms were fixed with 100% methanol for 15 min, stained with 0.1% crystal violet (CV) for 1 h, and rinsed three times with distilled water (dH2O). After the addition of 95% ethanol, biofilm mass was quantified by measuring OD at 595 nm using a Versa-Max microplate ELISA reader (Molecular Devices). Results were expressed as the percentage of biofilm formed with respect to the control. […] All experiments were performed at least in triplicate.

P. aeruginosa 27853 = type: cell-based, Pseudomonas aeruginosa
Procedure: as §1
The effects of various cations on the antibacterial activities of the parental and analogue peptides against P. aeruginosa 27853 were evaluated as previously described. Bacteria was treated with peptides at a final concentration 25 µM in the presence of physiological salts such as NaCl (50 mM, 100 mM, and 150 mM), CaCl2 (1.25 mM, 2.5 mM, and 5 mM), or MgCl2 (0.5 mM, 1 mM, and 2 mM). The MIC values were determined as described above.

HaCaT cells = assay: Cytotoxicity, MTT assay; type: cell-based, human; settings: 50 µM, 24 h
Procedure: We used the MTT assay to evaluate the toxicity of the peptides toward human skin epithelial cells (HaCaT) as previously described. Briefly, HaCaT cells were seeded at a density of 2 × 10^4 cells per well in 96-well microtiter plates in Dulbecco’s modified Eagle’s medium (DMEM) containing 10% foetal bovine serum (FBS) at 37 °C under 5% CO2 atmosphere. The next day, peptides were added to each well at various final concentrations (higher concentration of 200 µM). After 24 h incubation, culture supernatants were removed. 0.5 mg/mL MTT was added to each well, and the plates were incubated for 4 h at 37 °C. The medium was replaced by dimethyl sulfoxide (DMSO) to dissolve the formazan crystals formed in the wells. The absorbance at 570 nm was measured using a Versa-Max microplate ELISA reader (Molecular Devices). The viability rate was calculated using the following formula: Cell viability (%) = (absorbance of treated sample)/(absorbance of control) × 100.

[3] = P. aeruginosa 138 (multidrug-resistant), triplicate
[4] = P. aeruginosa 431 (multidrug-resistant), triplicate
[5] = P. aeruginosa 434 (multidrug-resistant), triplicate
[6] = P. aeruginosa 557 (multidrug-resistant), triplicate
[7] = P. aeruginosa 559 (multidrug-resistant), triplicate
[8] = P. aeruginosa 778 (multidrug-resistant), triplicate
[9] = P. aeruginosa 1034 (multidrug-resistant), triplicate
[10] = P. aeruginosa 1162 (multidrug-resistant), triplicate
[11] = P. aeruginosa 3290 (multidrug-resistant), triplicate
[12] = P. aeruginosa 3399 (multidrug-resistant), triplicate
[13] = P. aeruginosa 3543 (multidrug-resistant), triplicate
[14] = P. aeruginosa 3592 (multidrug-resistant), triplicate
[15] = P. aeruginosa 3904 (multidrug-resistant), triplicate
[16] = P. aeruginosa 4007 (multidrug-resistant), triplicate
[17] = P. aeruginosa 4319 (multidrug-resistant), triplicate
[18] = P. aeruginosa 4891 (multidrug-resistant), triplicate
[19] = P. aeruginosa 5018 (multidrug-resistant), triplicate
[20] = P. aeruginosa 671973 (multidrug-resistant), triplicate
[21] = P. aeruginosa ATCC 27853, 2 × 10^5 CFU/mL, A600, triplicate
[22] = P. aeruginosa 27853, 5 × 10^5 CFU/mL, 0.2% glucose

Substance	MIC [1, 3] [µM]	MIC [1, 4] [µM]	MIC [1, 5] [µM]	MIC [1, 6] [µM]	MIC [1, 7] [µM]	MIC [1, 8] [µM]	MIC [1, 9] [µM]	MIC [1, 10] [µM]	MIC [1, 11] [µM]	MIC [1, 12] [µM]	MIC [1, 13] [µM]	MIC [1, 14] [µM]	MIC [1, 15] [µM]	MIC [1, 16] [µM]	MIC [1, 17] [µM]	MIC [1, 18] [µM]	MIC [1, 19] [µM]	MIC [1, 20] [µM]	MIC [1, 21] [µM]	MBIC ([2]; P. aeruginosa 434) [µM]	other results
Buforin2 [reference compound]	12.5	6.25	6.25	6.25	12.5	12.5	6.25	12.5	6.25	12.5	12.5	3.13	6.25	12.5	12.5	>25	12.5	3.13	25	–	–
ILGKLWEGVKSI-NH2 [Hp1404-T1]	>25	>25	>25	>25	>25	>25	>25	>25	>25	>25	>25	>25	>25	>25	>25	>25	>25	>25	>25	–	–
ILKKLLEGVKSI-NH2 [Hp1404-T1b]	>25	>25	25	>25	>25	>25	>25	>25	>25	>25	>25	25	>25	>25	>25	>25	>25	>25	>25	–	–
ILKKLLKGVKSI-NH2 [Hp1404-T1c]	25	12.5	6.25	25	25	6.25	6.25	3.13	>25	3.13	>25	6.25	6.25	12.5	6.25	6.25	3.13	6.25	3.13	50	MBIC ([2]; P. aeruginosa 559): 25 µM; MBIC ([2]; P. aeruginosa 778): 25 µM; MBIC ([2]; P. aeruginosa 1034): 25 µM; MBIC ([2]; P. aeruginosa 1162): 12.5 µM; MBIC ([2]; P. aeruginosa 3399): 25 µM; MBIC ([2]; P. aeruginosa 3543): >50 µM; MBIC ([2]; P. aeruginosa 4007): >50 µM; MBIC [2, 22]: 25 µM; MIC (P. aeruginosa 27853; CaCl2 1.25 mM): >25 µM; MIC (P. aeruginosa 27853; CaCl2 2.5 mM): >25 µM; MIC (P. aeruginosa 27853; CaCl2 5 mM): >25 µM; MIC (P. aeruginosa 27853; MgCl2 0.5 mM): 12.5 µM; MIC (P. aeruginosa 27853; MgCl2 1 mM): 12.5 µM; MIC (P. aeruginosa 27853; MgCl2 2 mM): >25 µM; MIC (P. aeruginosa 27853; NaCl 50 mM): >25 µM; MIC (P. aeruginosa 27853; NaCl 100 mM): >25 µM; MIC (P. aeruginosa 27853; NaCl 150 mM): >25 µM; survival rate of HaCaT cells (HaCaT cells): 51%
ILKKLLKKVKSI-NH2 [Hp1404-T1d]	12.5	3.13	3.13	3.13	12.5	3.13	3.13	1.56	6.25	1.56	25	3.13	6.25	6.25	3.13	3.13	1.56	1.56	1.56	12.5	MBIC ([2]; P. aeruginosa 559): 12.5 µM; MBIC ([2]; P. aeruginosa 778): 12.5 µM; MBIC ([2]; P. aeruginosa 1034): 12.5 µM; MBIC ([2]; P. aeruginosa 1162): 6.25 µM; MBIC ([2]; P. aeruginosa 3399): 25 µM; MBIC ([2]; P. aeruginosa 3543): >50 µM; MBIC ([2]; P. aeruginosa 4007): 50 µM; MBIC [2, 22]: 12.5 µM; MIC (P. aeruginosa 27853; CaCl2 1.25 mM): 12.5 µM; MIC (P. aeruginosa 27853; CaCl2 2.5 mM): 25 µM; MIC (P. aeruginosa 27853; CaCl2 5 mM): >25 µM; MIC (P. aeruginosa 27853; MgCl2 0.5 mM): 3.13 µM; MIC (P. aeruginosa 27853; MgCl2 1 mM): 6.25 µM; MIC (P. aeruginosa 27853; MgCl2 2 mM): 12.5 µM; MIC (P. aeruginosa 27853; NaCl 50 mM): 12.5 µM; MIC (P. aeruginosa 27853; NaCl 100 mM): 12.5 µM; MIC (P. aeruginosa 27853; NaCl 150 mM): 25 µM; survival rate of HaCaT cells (HaCaT cells): 33%
ILKKLWEGVKSI-NH2 [Hp1404-T1a]	>25	25	25	>25	>25	>25	>25	>25	>25	25	>25	12.5	25	>25	>25	25	>25	25	>25	–	–

From article PMC5789083, “Mechanisms driving the antibacterial and antibiofilm properties of Hp1404 and its analogue peptides against multidrug-resistant Pseudomonas aeruginosa” (Scientific Reports, 2018)
